Experimental data: patent publication US4880789A, “2'-Substituted-4-deoxy-thiazolo(5,4-c)-rifamycin SV derivatives” (Gruppo Lepetit S.P.A., priority 1985, dated 1989)
≈ marks a conversion by molar mass, not a printed value. Where two headings read alike, the source gives them in different places.

Tests used:
[1] = test system: Escherichia coli SKF 12140; assay: MIC, two-fold dilution microtiter, E. coli SKF 12140; type: cell-based; settings: Escherichia coli, SKF12140, Iso-Sensitest broth, 18-24 h, 37° C, read-out: MIC
S. aureus TOUR L 165 [2] = assay: MIC, two-fold dilution microtiter, S. aureus TOUR L 165; type: cell-based, Staphylococcus aureus; settings: Staphylococcus aureus, TOURL165, S. aureus TOUR L 165, read-out: MIC
[3] = test system: Proteus vulgaris XI9H ATCC 881; assay: MIC, two-fold dilution microtiter, P. vulgaris; type: cell-based; settings: Proteus vulgaris, ATCC881
S. pneumoniae UC 41 = assay: MIC, two-fold dilution microtiter, S. pneumoniae UC 41; type: cell-based; settings: Streptococcus pneumoniae, UC41, Todd-Hewitt broth, 18-24 h, 37° C, read-out: MIC
S. faecalis ATCC 7080 = assay: MIC, two-fold dilution microtiter, S. faecalis ATCC 7080; type: cell-based; settings: Enterococcus faecalis, ATCC7080, 18-24 h, 37° C, read-out: MIC
S. aureus tour L 165 [4] = assay: experimental septicemia in mice (S. aureus); type: in vivo; settings: Staphylococcus aureus, once daily for three days, survival on 10th day
Protocol: The antimicrobial activity of the compounds of the invention is also confirmed in "in vivo" tests. The animals (groups of five mice) were infected by intraperitoneal injection of 16-hour broth culture of S. aureus tour L 165. Inocula were adjusted so that untreated animals died of septicemia within 48 hours. Animals were treated once daily for three days starting immediately after infection. On the 10th day the value for the ED50 in mg/kg/day was calculated by the method of […]-KARBER (Finney, D. J., Statistical method in biological assay, page 524. C. Griffin Ltd., London, 1952), on the basis of the percentage of surviving animals at each dose.

[5] = test system: Streptococcus pyogenes C203; assay: MIC, two-fold dilution microtiter, S. pyogenes C203; type: cell-based; settings: Streptococcus pyogenes, Todd-Hewitt broth, 18-24 h, 37° C, read-out: MIC
Protocol: (§1) The minimum inhibitory concentration (MIC) of representative compounds of the invention was determined using two-fold dilution method in microtiter system. The media used were: Todd-Hewitt broth (Difco) for steptococci; Iso-Sensitest broth (Oxoid) for staphylococci and gram-negative bacteria. The final inoculum was about 10^4 cfμ/ml. […] For M. tuberculosis H37 RV the inoculum consisted of 0.5-1% of a 7-9 day culture in Dubos medium. The tests were carried out in Kirschner medium supplemented with 10% horse serum. Observations were made after 7-days incubation at 37° C.

[6] = test system: Klebsiella pneumoniae ISM; assay: MIC, two-fold dilution microtiter, K. pneumoniae ISM; type: cell-based; settings: Klebsiella pneumoniae
S. aureus TOUR L 1282 = assay: MIC, two-fold dilution microtiter, rifampicin resistant S. aureus TOUR L 1282; type: cell-based; settings: Staphylococcus aureus, TOURL1282, rifampicin resistant strain
[7] = test system: Mycobacterium tuberculosis H37RV ATCC 9360; assay: MIC, M. tuberculosis H37RV, Kirschner medium; type: cell-based; settings: Mycobacterium tuberculosis, 168 h, 10% horse serum, 7 days, 37° C, read-out: MIC
Protocol: as §1

[8] = test system: Pseudomonas aeruginosa ATCC 10145; assay: MIC, two-fold dilution microtiter, P. aeruginosa ATCC 10145; type: cell-based; settings: Pseudomonas aeruginosa, ATCC10145
[9] = test system: Staphylococcus aureus ATCC 6538; assay: MIC, two-fold dilution microtiter, S. aureus ATCC 6538; type: cell-based; settings: Staphylococcus aureus, ATCC6538; S. aureus ATCC 6538; Iso-Sensitest broth; 18-24 h, 37° C; read-out: MIC
[10] = Iso-Sensitest broth, 18-24 h, 37° C
[11] = supplemented with 30% bovine serum

Row | SMILES | MIC [1] | MIC (S. aureus TOUR L 165 [2]; [10]) | MIC (S. aureus TOUR L 165 [2]; [11]) | MIC [3] | MIC (S. pneumoniae UC 41) | MIC (S. faecalis ATCC 7080) | ED50 (S. aureus tour L 165 [4]; TOURL165, 240 h, sc) | ED50 (S. aureus tour L 165 [4]; TOURL165, po, 240 h, os) | MIC [5] | MIC [6] | MIC (S. aureus TOUR L 1282) | MIC [7] | MIC [8] | MIC [9] | MIC ([3]; P. vulgaris XI9H ATCC 881, Iso-Sensitest broth, 18-24 h, 37° C, read-out: MIC) | MIC ([8]; P. aeruginosa ATCC 10145, Iso-Sensitest broth, 18-24 h, 37° C, read-out: MIC)
1 | COC1C=COC2(C)Oc3c(C)c(O)c4c(O)c(c5sc(N6CCN(c7ccc(Cl)cc7)CC6)nc5c4c3C2=O)NC(=O)C(C)=CC=CC(C)C(O)C(C)C(O)C(C)C(OC(C)=O)C1C (stereo not shown) [Example 3d, 2'-[4"(4'"-chlorophenyl)-1-piperazinyl]rifamycin P] | 1 µg/mL (≈ 1.07 µM) | 0.064 µg/mL (≈ 0.0686 µM) | 0.25 µg/mL (≈ 0.268 µM) | > 128 µg/mL | 0.125 µg/mL (≈ 0.134 µM) | 2 µg/mL (≈ 2.14 µM) | 3.3 mg/kg | 3.3 mg/kg | 0.064 µg/mL (≈ 0.0686 µM) | > 128 µg/mL | > 128 µg/mL | 1 µg/mL (≈ 1.07 µM) | 128 µg/mL (≈ 137 µM) | 0.064 µg/mL (≈ 0.0686 µM) | – | –
2 | COc1ccc(N2CCN(c3nc4c(s3)c3c(O)c5c(O)c(C)c6c(c54)C(=O)C(C)(OC=CC(OC)C(C)C(OC(C)=O)C(C)C(O)C(C)C(O)C(C)C=CC=C(C)C(=O)N3)O6)CC2)cc1 (stereo not shown) [Example 3e, 2'-[4"(4'"-methoxyphenyl)-1-piperazinyl]rifamycin P] | 8 µg/mL (≈ 8.61 µM) | 0.064 µg/mL (≈ 0.0689 µM) | 0.5 µg/mL (≈ 0.538 µM) | – | 0.064 µg/mL (≈ 0.0689 µM) | 4 µg/mL (≈ 4.31 µM) | 0.63 mg/kg | 1.9 mg/kg | 0.125 µg/mL (≈ 0.135 µM) | > 128 µg/mL | > 128 µg/mL | 0.25 µg/mL (≈ 0.269 µM) | – | 0.064 µg/mL (≈ 0.0689 µM) | 64 µg/mL (≈ 68.9 µM) | 8 µg/mL (≈ 8.61 µM)
